From PMC3574223 (Bioorganic & medicinal chemistry, 2013)

System: human aortic smooth muscle cells (HASMCs)
Test: Intracellular NO determination using DAF-FM DA
Type: cell-based
Settings: increasing ABH concentrations 1 µM-5 mM

**Q.** `N[C@@H](CCCCB(O)O)C(=O)O` [ABH, S-2-amino-6-boronic acid] was tested. Which “intracellular NO and/or N2O3 (DAF-FM DA fluorescence)” value did it give?
**A.** the amount of intracellular NO rises with increasing concentrations of ABH
